Results from DBAASP.
In brackets after ≈: the same amount, converted by molar mass. Values belong to the compound of their own block, whether it stands above or below them.

Experiments:
Assay in all cases: ≥ marks a high value that may be exact or a test limit, other limits are often not marked, values filed in µg/mL are converted to µM
[1] = tested on: Bacillus cereus ATCC 10876
[2] = tested on: Enterococcus faecalis ATCC 29212
[3] = tested on: Pseudomonas aeruginosa ATCC 27853
[4] = tested on: Salmonella enterica subsp. enterica serovar Typhimurium ATCC 14028
[5] = tested on: Staphylococcus aureus ATCC 6538
[6] = tested on: Streptococcus agalactiae ATCC 27956
[7] = tested on: Streptococcus dysgalactiae subsp. dysgalactiae ATCC 27957
[8] = tested on: Streptococcus equi subsp. zooepidemicus ATCC 43079
Bacillus subtilis 168 = tested on: Bacillus subtilis 168
[9] = tested on: Clavibacter michiganensis subsp. michiganensis
Escherichia coli BL21 = tested on: Escherichia coli BL21
[10] = tested on: Pseudomonas syringae pv. tomato DC3000
Ralstonia solanacearum = tested on: Ralstonia solanacearum
[11] = tested on: Xanthomonas campestris pv. holcicola
[12] = tested on: Xanthomonas oryzae pv. oryzae
[13] = tested on: Burkholderia cepacia ATCC 25416
Escherichia coli UB1005 = tested on: Escherichia coli UB1005
[14] = tested on: Pseudomonas aeruginosa H374
[15] = tested on: Pseudomonas aeruginosa H547
[16] = tested on: Pseudomonas aeruginosa H744
[17] = tested on: Pseudomonas aeruginosa K799
[18] = tested on: Pseudomonas aeruginosa Z61
[19] = tested on: Salmonella enterica subsp. enterica serovar Typhimurium ATCC 14028s
[20] = tested on: Acinetobacter baumannii ATCC 19606
[21] = tested on: Acinetobacter baumannii ATCC BAA-1605
[22] = tested on: Acinetobacter baumannii CR17
[23] = tested on: Enterococcus faecium ATCC 700221
[24] = tested on: Escherichia coli ATCC 25922
[25] = tested on: Klebsiella pneumoniae ATCC 700603
[26] = tested on: Staphylococcus aureus ATCC 33591
[27] = tested on: Candida glabrata ATCC 90030
Candida krusei ATCC 6258 = tested on: Candida krusei ATCC 6258
[28] = tested on: Enterococcus faecalis CECT 481
[29] = tested on: Escherichia coli CECT 434
[30] = tested on: Staphylococcus aureus CECT 435
Staphylococcus aureus MR = tested on: Staphylococcus aureus MR
[31] = tested on: Streptococcus agalactiae CECT 183T
[32] = tested on: Candida albicans NCTC 1467
[33] = tested on: Escherichia coli NCTC 10418
[34] = tested on: Klebsiella pneumoniae ATCC 43816
[35] = tested on: Staphylococcus aureus NCTC 10788
[36] = tested on: Staphylococcus aureus NCTC 12493

SMILES: CC[C@H](C)[C@H](NC(=O)[C@H](CC(C)C)NC(=O)[C@H](CC(N)=O)NC(=O)CNC(=O)[C@H](Cc1ccccc1)NC(=O)[C@@H](NC(=O)[C@H](CCCN=C(N)N)NC(=O)[C@@H](NC(=O)[C@H](CC(C)C)NC(=O)[C@H](CCC(N)=O)NC(=O)[C@H](Cc1ccc(O)cc1)NC(=O)[C@@H](N)Cc1c[nH]c2ccccc12)[C@@H](C)CC)[C@@H](C)O)C(=O)N[C@@H](Cc1cnc[nH]1)C(=O)N[C@@H](CCC(N)=O)C(=O)N[C@@H](CCCCN)C(=O)N[C@@H](Cc1ccc(O)cc1)C(=O)N[C@@H](CCCN=C(N)N)C(=O)N[C@@H](CCCCN)C(=O)N[C@@H](CC(C)C)C(=O)N[C@@H](CC(C)C)C(=O)N[C@@H](CCC(=O)O)C(=O)N[C@@H](C)C(=O)N[C@@H](Cc1ccc(O)cc1)C(=O)N[C@@H](CCCN=C(N)N)C(=O)N[C@@H](CCCCN)C(=O)N[C@@H](CC(C)C)C(=O)N[C@@H](CCCN=C(N)N)C(=O)N[C@@H](CC(=O)O)C(=O)O [WYQLIRTFGNLIHQKYRKLLEAYRKLRD]
MIC [1]: 1.66 µM (≈ 6 µg/mL) | MIC [2]: 0.552 µM (≈ 2 µg/mL) | MIC [3]: > 8.83 µM | MIC [4]: > 8.83 µM | MIC [5]: 0.414 µM (≈ 1.5 µg/mL) | MIC [6]: 11 µM (≈ 39.9 µg/mL) | MIC [7]: 11 µM (≈ 39.9 µg/mL) | MIC [8]: 11 µM (≈ 39.9 µg/mL)

SMILES: CC[C@H](C)[C@H](NC(=O)CNC(=O)[C@H](C)NC(=O)CN)C(=O)NCC(=O)N1CCC[C@H]1C(=O)NCC(=O)N[C@@H](Cc1cnc[nH]1)C(=O)N[C@@H](CCCN=C(N)N)C(=O)N[C@@H](CCCN=C(N)N)C(=O)N[C@H](C(=O)N[C@@H](Cc1c[nH]c2ccccc12)C(=O)N[C@@H](CCCN=C(N)N)C(=O)N[C@@H](CCCN=C(N)N)C(=O)N[C@@H](Cc1c[nH]c2ccccc12)C(=O)N1CCC[C@H]1C(=O)N[C@@H](CCCN=C(N)N)C(=O)N[C@@H](CCCN=C(N)N)C(=O)N[C@@H](CCCN=C(N)N)C(=O)N[C@@H](Cc1c[nH]c2ccccc12)C(=O)N[C@@H](CCCN=C(N)N)C(=O)O)[C@@H](C)O [GAGIGPGHRRTWRRWPRRRWR]
MIC (Bacillus subtilis 168): 16 µM (≈ 42.7 µg/mL) | MIC [9]: 16 µM (≈ 42.7 µg/mL) | MIC (Escherichia coli BL21): 16 µM (≈ 42.7 µg/mL) | MIC [10]: 4 µM (≈ 10.7 µg/mL) | MIC (Ralstonia solanacearum): 8 µM (≈ 21.4 µg/mL) | MIC [11]: 16 µM (≈ 42.7 µg/mL) | MIC [12]: 4 µM (≈ 10.7 µg/mL)

SMILES: CC[C@H](C)[C@H](NC(=O)CNC(=O)[C@H](CCC(N)=O)NC(=O)[C@@H](NC(=O)[C@@H]1CCCN1C(=O)CNC(=O)[C@H](CC(=O)O)NC(=O)CNC(=O)[C@H](CCCCN)NC(=O)[C@H](CC(C)C)NC(=O)[C@@H](NC(=O)[C@H](CS)NC(=O)[C@@H](NC(=O)[C@H](C)NC(=O)[C@H](CCCCN)NC(=O)[C@@H](NC(=O)[C@H](C)N)[C@@H](C)O)C(C)C)C(C)C)C(C)C)C(=O)N[C@H](C(=O)N[C@@H](CC(N)=O)C(=O)N[C@@H](Cc1ccccc1)C(=O)O)[C@@H](C)CC [ATKAVCVLKGDGPVQGIINF]
MIC [27]: ≥ 126 µM | MIC (Candida krusei ATCC 6258): 3.94 µM (≈ 8 µg/mL) | MIC [28]: 7.88 µM (≈ 16 µg/mL) | MIC [29]: 31.5 µM (≈ 64 µg/mL) | MIC [30]: 7.88 µM (≈ 16 µg/mL) | MIC (Staphylococcus aureus MR): 7.88 µM (≈ 16 µg/mL) | MIC [31]: 7.88 µM (≈ 16 µg/mL)

The next lines start with the values.

MIC [13]: 25.2 µM (≈ 64 µg/mL) | MIC (Escherichia coli UB1005): 1.57 µM (≈ 4 µg/mL) | MIC [14]: 3.15 µM (≈ 8 µg/mL) | MIC [15]: 6.3 µM (≈ 16 µg/mL) | MIC [16]: 1.57 µM (≈ 4 µg/mL) | MIC [17]: 25.2 µM (≈ 64 µg/mL) | MIC [18]: 12.6 µM (≈ 32 µg/mL) | MIC [19]: 1.57 µM (≈ 4 µg/mL)
SMILES: CC[C@H](C)[C@H](NC(=O)CNC(=O)[C@@H](NC(=O)[C@H](CCCCN)NC(=O)[C@H](CCCCN)NC(=O)[C@@H](NC(=O)[C@H](Cc1ccccc1)NC(=O)[C@H](CCCCN)NC(=O)[C@H](CCCCN)NC(=O)[C@H](Cc1c[nH]c2ccccc12)NC(=O)[C@H](CCCCN)NC(=O)[C@@H](N)CCCCN)[C@@H](C)CC)[C@@H](C)CC)C(=O)NCC(=O)N[C@@H](C)C(=O)N[C@H](C(=O)N[C@@H](CC(C)C)C(=O)N[C@H](C(=O)N[C@H](C(=O)N1CCC[C@H]1C(=O)NCC(=O)N[C@@H](C)C(=O)N[C@@H](CCCCN)C(=O)N[C@@H](CCCCN)C(=O)O)[C@@H](C)O)[C@@H](C)O)C(C)C [KKWKKFIKKIGIGAVLTTPGAKK]

MIC [20]: 3.04 µM (≈ 4.5 µg/mL) | MIC [21]: 3.04 µM (≈ 4.5 µg/mL) | MIC [22]: 16.1 µM (≈ 23.8 µg/mL) | MIC [23]: 5.75 µM (≈ 8.49 µg/mL) | MIC [24]: 11.5 µM (≈ 17 µg/mL) | MIC [25]: 5.75 µM (≈ 8.49 µg/mL) | MIC [3]: 11.5 µM (≈ 17 µg/mL) | MIC [26]: 5.75 µM (≈ 8.49 µg/mL)
SMILES: CC[C@H](C)[C@H](NC(=O)[C@H](CCCCN)NC(=O)[C@H](CCCN=C(N)N)NC(=O)[C@H](Cc1ccccc1)NC(=O)[C@H](CC(C)C)NC(=O)[C@H](CCCN=C(N)N)NC(=O)[C@@H](N)CCCCN)C(=O)N[C@@H](CC(C)C)C(=O)N[C@@H](CCCCN)C(=O)N[C@@H](Cc1ccc(O)cc1)C(=O)N[C@@H](CC(C)C)C(N)=O [KRLFRKILKYL]

MIC [32]: ≥ 64 µM | MIC [33]: ≥ 128 µM | MIC [34]: ≥ 128 µM | MIC [3]: > 128 µM | MIC [35]: 4 µM (≈ 9.54 µg/mL) | MIC [36]: 8 µM (≈ 19.1 µg/mL)
SMILES: CC[C@H](C)[C@@H]1NC(=O)[C@H](CC(C)C)NC(=O)[C@@H](NC(=O)[C@H](Cc2ccccc2)NC(=O)[C@H](CC(C)C)NC(=O)[C@H](CCCCN)NC(=O)[C@H](Cc2ccc(O)cc2)NC(=O)[C@H](CC(C)C)NC(=O)[C@@H](NC(=O)[C@H](CCCCN)NC(=O)[C@@H](NC(=O)[C@@H](NC(=O)[C@H](C)NC(=O)CNC(=O)[C@H](CC(C)C)NC(=O)[C@H](C)NC(=O)[C@@H](N)Cc2ccccc2)C(C)C)[C@@H](C)O)C(C)C)CSSC[C@@H](C(=O)O)NC(=O)[C@H](CCCCN)NC(=O)[C@H](CCCN=C(N)N)NC(=O)[C@H]([C@@H](C)O)NC1=O [FALGAVTKVLYKLFCLITRKC]
